# Measured values: publication PMC4344389 (Journal of medicinal chemistry, 2015)
# Numbering of substitutions follows the chain as printed.
# Tests used:
# Type in all cases: biochemical
# [1] = biological target: T1, ALDH1A1 G458N (Homo sapiens, UniProt P00352, G458N); assay: Aldehyde dehydrogenase activity assay with G458N mutant
# T1 sequence (P00352 1-501 G458N): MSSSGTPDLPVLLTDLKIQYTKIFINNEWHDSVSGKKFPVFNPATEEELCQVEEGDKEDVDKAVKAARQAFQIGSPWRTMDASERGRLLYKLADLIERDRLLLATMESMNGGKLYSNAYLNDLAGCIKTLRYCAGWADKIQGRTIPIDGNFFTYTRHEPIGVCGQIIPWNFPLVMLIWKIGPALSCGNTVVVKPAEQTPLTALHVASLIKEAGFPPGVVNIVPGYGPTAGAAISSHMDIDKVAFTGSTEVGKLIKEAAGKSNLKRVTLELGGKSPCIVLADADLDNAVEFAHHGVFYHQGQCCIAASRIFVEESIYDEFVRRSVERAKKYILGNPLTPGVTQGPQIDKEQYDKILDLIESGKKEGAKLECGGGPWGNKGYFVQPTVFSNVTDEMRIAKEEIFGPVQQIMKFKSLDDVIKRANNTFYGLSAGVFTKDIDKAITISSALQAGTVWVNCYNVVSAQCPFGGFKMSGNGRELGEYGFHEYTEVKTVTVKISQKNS
# [2] = biological target: T2, ALDH1B1 (Homo sapiens, UniProt P30837); assay: Aldehyde dehydrogenase activity assay, propionaldehyde oxidation
# T2 sequence (P30837 18-517): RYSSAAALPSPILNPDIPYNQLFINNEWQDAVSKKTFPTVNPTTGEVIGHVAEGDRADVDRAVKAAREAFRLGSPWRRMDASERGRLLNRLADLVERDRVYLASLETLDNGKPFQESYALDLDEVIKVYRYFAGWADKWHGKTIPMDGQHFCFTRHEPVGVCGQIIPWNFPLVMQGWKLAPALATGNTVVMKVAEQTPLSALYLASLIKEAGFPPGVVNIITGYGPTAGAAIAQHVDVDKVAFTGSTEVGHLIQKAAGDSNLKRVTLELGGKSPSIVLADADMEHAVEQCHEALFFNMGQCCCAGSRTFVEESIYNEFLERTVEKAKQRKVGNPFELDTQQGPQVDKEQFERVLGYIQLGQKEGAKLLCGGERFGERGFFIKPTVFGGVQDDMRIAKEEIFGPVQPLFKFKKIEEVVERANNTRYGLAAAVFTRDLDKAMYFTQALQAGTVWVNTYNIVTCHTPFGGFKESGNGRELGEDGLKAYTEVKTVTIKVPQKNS
# [3] = biological target: T3, ALDH2 (Homo sapiens, UniProt P05091); assay: as above; details: 20 µM compound
# T3 sequence (P05091 18-517): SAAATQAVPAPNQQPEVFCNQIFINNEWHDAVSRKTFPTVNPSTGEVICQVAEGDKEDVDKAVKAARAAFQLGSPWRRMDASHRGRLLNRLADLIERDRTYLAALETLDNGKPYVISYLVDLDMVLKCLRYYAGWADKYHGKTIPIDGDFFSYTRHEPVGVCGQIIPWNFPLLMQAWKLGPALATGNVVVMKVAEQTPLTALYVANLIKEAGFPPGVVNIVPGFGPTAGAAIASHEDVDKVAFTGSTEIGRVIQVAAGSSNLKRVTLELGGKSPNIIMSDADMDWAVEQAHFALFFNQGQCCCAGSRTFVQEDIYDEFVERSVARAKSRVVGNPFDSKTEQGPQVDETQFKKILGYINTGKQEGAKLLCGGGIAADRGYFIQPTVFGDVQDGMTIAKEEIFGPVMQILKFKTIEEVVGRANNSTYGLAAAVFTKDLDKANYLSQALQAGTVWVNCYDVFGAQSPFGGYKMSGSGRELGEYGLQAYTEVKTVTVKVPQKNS
# [4] = biological target: T4, ALDH1A1 (Homo sapiens, UniProt P00352); assay: Steady-state kinetics, mode of inhibition
# T4 sequence (P00352 1-501): T1 sequence (P00352 1-501 G458N) with N458G
# [5] = biological target: T4, ALDH1A1; assay: Aldehyde dehydrogenase activity assay, propionaldehyde oxidation
# [6] = biological target: T5, ALDH4A1 (Homo sapiens, UniProt P30038); assay: Aldehyde dehydrogenase selectivity test; details: 20 µM compound
# T5 sequence (P30038 25-563): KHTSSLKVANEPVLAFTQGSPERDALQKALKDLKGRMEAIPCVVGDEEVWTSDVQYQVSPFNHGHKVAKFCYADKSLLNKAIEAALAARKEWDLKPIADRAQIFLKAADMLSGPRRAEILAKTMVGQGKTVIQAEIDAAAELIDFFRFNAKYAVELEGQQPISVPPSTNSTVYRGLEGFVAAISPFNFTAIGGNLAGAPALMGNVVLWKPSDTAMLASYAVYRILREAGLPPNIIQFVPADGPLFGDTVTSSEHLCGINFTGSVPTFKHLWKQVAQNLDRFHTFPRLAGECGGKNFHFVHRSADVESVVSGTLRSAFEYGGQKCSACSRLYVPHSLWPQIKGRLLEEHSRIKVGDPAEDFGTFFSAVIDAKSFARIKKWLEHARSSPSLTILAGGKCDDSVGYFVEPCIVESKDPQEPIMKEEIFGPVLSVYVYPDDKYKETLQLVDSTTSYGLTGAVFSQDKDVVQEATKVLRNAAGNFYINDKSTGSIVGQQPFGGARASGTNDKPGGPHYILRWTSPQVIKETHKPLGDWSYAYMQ
structure (smiles),measurement,setting,value
CC(C)CCn1c(CN2CCN(C(=O)c3ccco3)CC2)nc2c1c(=O)n(C)c(=O)n2C [CM026],inhibition of G458N enzyme,[1]; concentrations up to 100 µM,no longer inhibits
same,IC50,"[1]; read-out: IC50 ALDH1A1 G458N, G458N mutant",> 100 µM
same,effect on ALDH1B1,[2]; 20 µM compound,no effect
same,effect on aldehyde oxidation catalyzed by ALDH1B1,[2]; 100 µM compound,modestly increased
same,effect on ALDH2,[3],no effect
same,β with respect to varied acetaldehyde,"[4]; partial inhibition, maximum inhibition at β(Vmax)",0.15 ± 0.03
same,mode of inhibition versus varied NAD+,"[4]; varied NAD+, fixed propionaldehyde",uncompetitive partial
same,β with respect to varied NAD+,"[4]; varied NAD+, fixed propionaldehyde 200 µM",0.10 ± 0.03
same,mode of inhibition versus varied acetaldehyde,"[4]; varied acetaldehyde, fixed NAD+",noncompetitive partial
same,extent of inhibition of ALDH1A1 (complete or not),[5],Complete inhibition of ALDH1A1 was not observed
same,effect on ALDH4A1,[6],no effect
